The assay has as its system isolated rabbit thoracic aorta preparations. In words: Vessel relaxation in isolated rabbit thoracic aorta rings precontracted with noradrenaline. The conditions noted are these: for EC50: Oryctolagus cuniculus.

Usually EC50 stands for the concentration needed to bring the measured effect to its halfway point.

For the molecule `CC(=O)N[C@H](C(=O)O)C(C)(C)SN=O` (racemic) [SNAP, S-nitroso-N-acetylpenicillamine, reference compound], the “Max. Relaxation” value (concentration not given) is 97.3%.
In the case of `CO[C@H]1C[C@@H](C(=O)O)C[C@@H]1O[N+](=O)[O-]` [Example 1, (+)-(1R,3S,4S)-3-methoxy-4-(nitrooxy)cyclopentanecarboxylic acid], the EC50 stood at 126 µM. The “Max. Relaxation” value (@ 1 μM) was determined as 37.47%.
As to `COC(=O)[C@@H]1CC[C@H](OC)[C@@H](O[N+](=O)[O-])C1` [Example 21, (1R,3S,4S)-methyl 4-methoxy-3-(nitrooxy)cyclohexanecarboxylate], the EC50 is 1 ± 0.2 µM.
For `COC(=O)[C@@H]1CC[C@@H](O[N+](=O)[O-])[C@H](OC)C1` [Example 22, (1R,3R,4R)-methyl 3-methoxy-4-(nitrooxy)cyclohexanecarboxylate], it took 6.3 ± 2 µM to reach a half-maximal effect (EC50).
On the same count and under the same terms, for `COC(=O)[C@@H]1CC[C@H](O[N+](=O)[O-])[C@@H](OC)C1` [Example 23, (1R,3S,4S)-methyl 3-methoxy-4-(nitrooxy)cyclohexanecarboxylate] the value was 3.5 ± 0.6 µM; for `COC(=O)[C@@H]1CC[C@@H](OC)[C@H](O[N+](=O)[O-])C1` [Example 24, (1R,3R,4R)-methyl 4-methoxy-3-(nitrooxy)cyclohexanecarboxylate], 11.1 ± 4.5 µM.

These data come from patent US8530521B2, “Nitrooxy cycloalkane derivatives” (Merck Sharp & Dohme Corp., priority 2008, dated 2013).
